Measurements reported in ChEMBL document CHEMBL4351032, “Design, synthesis, and biological evaluation of 4-((6,7-dimethoxyquinoline-4-yl)oxy)aniline derivatives as FLT3 inhibitors for the treatment of acute myeloid leukemia” (Bioorg Med Chem Lett, 2019).

Columns and labels:
[1] = test system: HL-60; experiment: Antiproliferative activity against human HL60 cells harboring wild type FLT3 assessed as inhibition of cell growth incubated for 72 hrs by CCK-8 assay; type: functional, cell-based; conditions: HL-60, 72 h
[2] = test system: MV4-11; experiment: Antiproliferative activity against human MV4-11 cells harboring FLT3-ITD assessed as inhibition of cell growth incubated for 72 hrs by CCK-8 assay; type: functional, cell-based; conditions: MV4-11, 72 h
[3] = molecular target: T1, Receptor-type tyrosine-protein kinase FLT3 (Homo sapiens, UniProt P36888); experiment: Inhibition of FLT3 (unknown origin) using peptide as substrate preincubated with enzyme for 10 mins followed by substrate addition further incubated for 1 hr by mobility shift assay
T1 sequence (P36888 whole entry): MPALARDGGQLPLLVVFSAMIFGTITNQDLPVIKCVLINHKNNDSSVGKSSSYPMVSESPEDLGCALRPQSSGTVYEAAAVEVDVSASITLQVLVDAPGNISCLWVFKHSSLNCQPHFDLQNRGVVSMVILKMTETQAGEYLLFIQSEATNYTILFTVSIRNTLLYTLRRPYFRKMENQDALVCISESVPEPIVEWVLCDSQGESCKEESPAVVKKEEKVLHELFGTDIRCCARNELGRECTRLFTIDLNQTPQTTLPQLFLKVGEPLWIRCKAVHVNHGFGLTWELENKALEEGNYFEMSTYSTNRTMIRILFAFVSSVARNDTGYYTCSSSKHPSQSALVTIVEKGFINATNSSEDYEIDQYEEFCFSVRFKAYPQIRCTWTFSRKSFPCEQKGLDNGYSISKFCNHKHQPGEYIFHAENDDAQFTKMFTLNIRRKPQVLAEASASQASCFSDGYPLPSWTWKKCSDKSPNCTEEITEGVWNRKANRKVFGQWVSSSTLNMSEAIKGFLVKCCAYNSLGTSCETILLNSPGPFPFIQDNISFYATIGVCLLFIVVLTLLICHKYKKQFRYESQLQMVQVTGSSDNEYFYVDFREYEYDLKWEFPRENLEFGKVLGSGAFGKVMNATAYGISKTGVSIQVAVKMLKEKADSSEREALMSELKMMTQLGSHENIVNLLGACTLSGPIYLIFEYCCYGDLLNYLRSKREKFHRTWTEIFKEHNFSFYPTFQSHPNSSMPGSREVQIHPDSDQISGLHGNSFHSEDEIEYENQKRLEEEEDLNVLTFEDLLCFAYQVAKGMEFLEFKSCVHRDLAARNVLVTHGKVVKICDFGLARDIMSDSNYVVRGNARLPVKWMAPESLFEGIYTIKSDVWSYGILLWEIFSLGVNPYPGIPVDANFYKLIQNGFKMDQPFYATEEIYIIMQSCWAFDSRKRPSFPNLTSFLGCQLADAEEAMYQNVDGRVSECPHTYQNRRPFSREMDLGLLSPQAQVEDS

[4] = test system: HL-60; experiment: Potency index, ratio of cabozantinib IC50 to compound IC50 for human HL60 cells incubated for 72 hrs by CCK-8 assay; type: functional
[5] = molecular target: T1, Receptor-type tyrosine-protein kinase FLT3; experiment: Inhibition of FLT3 (unknown origin)

Row | Compound | IC50 [1] | IC50 [2] | IC50 [3] | IC50 [5] | Ratio IC50 [4]
1 | COc1cc2nccc(Oc3ccc(NC(=O)N/N=C/c4cn(-c5cccc(Cl)c5)nn4)cc3)c2cc1OC | 21.1 µM | 13.4 µM | > 1 µM | – | –
2 | COc1cc2nccc(Oc3ccc(N/C(=N/c4ccc(OC(F)(F)F)cc4)C(F)(F)F)cc3)c2cc1OC | 32.7 µM | – | – | – | –
3 | COc1cccc(-n2cc(/C=N/NC(=O)Nc3ccc(Oc4ccnc5cc(OC)c(OC)cc45)cc3)nn2)c1 | 18.8 µM | 13.8 µM | > 1 µM | – | –
4 | COc1cc2nccc(Oc3ccc(NC(=O)N/N=C/c4cn(-c5ccccc5)nn4)cc3)c2cc1OC | 41.3 µM | 38.7 µM | – | – | –
5 | COc1ccc(/N=C(/Nc2ccc(Oc3ccnc4cc(OC)c(OC)cc34)cc2)C(F)(F)F)cc1 | 36.2 µM | – | – | – | –
6 | COc1cc2nccc(Oc3ccc(N/C(=N/c4ccc(Cl)c(Cl)c4)C(F)(F)F)cc3)c2cc1OC | > 50 µM | – | – | – | –
7 | COc1cc2nccc(Oc3ccc(NC(=O)N/N=C/c4cn(-c5cccc(C(F)(F)F)c5)nn4)cc3)c2cc1OC | > 50 µM | 49.1 µM | – | – | –
8 | COc1cc2nccc(Oc3ccc(N/C(=N/c4ccc(C)cc4)C(F)(F)F)cc3)c2cc1OC | 46.2 µM | – | – | – | –
9 | COc1cc2nccc(Oc3ccc(NC(=O)N/N=C/c4cn(-c5ccc(F)cc5)nn4)cc3)c2cc1OC | 21.7 µM | 21.4 µM | – | – | –
10 | COc1cc2nccc(Oc3ccc(N/C(=N/c4ccc([N+](=O)[O-])cc4)C(F)(F)F)cc3)c2cc1OC | > 50 µM | – | – | – | –
11 | COc1cc2nccc(Oc3ccc(N/C(=N/c4cccc(C(F)(F)F)c4)C(F)(F)F)cc3)c2cc1OC | > 50 µM | – | – | – | –
12 | COc1cc2nccc(Oc3ccc(NC(=O)C4(C(=O)Nc5ccc(F)cc5)CC4)cc3)c2cc1OC [CABOZANTINIB] | 22.5 µM | 15.2 µM | – | – | –
13 | COc1cc2nccc(Oc3ccc(NC(=O)N/N=C/c4cn(-c5ccccc5OC)nn4)cc3)c2cc1OC | 14.2 µM | 8.29 µM | 0.312 µM | – | –

More lines, main results first:

Row | IC50 [1] | IC50 [2] | IC50 [3] | IC50 [5] | Compound | Ratio IC50 [4]
14 | 8.91 µM | 5.8 µM | 0.384 µM | – | COc1cc2nccc(Oc3ccc(NC(=O)N/N=C/c4cn(-c5cccc(F)c5)nn4)cc3)c2cc1OC | 2.52
15 | > 50 µM | – | – | – | COc1cc2nccc(Oc3ccc(N/C(=N/c4ccc(Cl)c(C(F)(F)F)c4)C(F)(F)F)cc3)c2cc1OC | –
16 | > 50 µM | – | – | – | COc1cc2nccc(Oc3ccc(N/C(=N/c4cccc(Cl)c4)C(F)(F)F)cc3)c2cc1OC | –
17 | > 50 µM | 48.4 µM | – | – | COc1cc2nccc(Oc3ccc(NC(=O)N/N=C/c4cn(-c5ccccc5Cl)nn4)cc3)c2cc1OC | –
18 | 44.6 µM | – | – | – | COc1cc2nccc(Oc3ccc(N/C(=N/c4ccccc4)C(F)(F)F)cc3)c2cc1OC | –
19 | 19.3 µM | 16.3 µM | – | – | COc1ccc(-n2cc(/C=N/NC(=O)Nc3ccc(Oc4ccnc5cc(OC)c(OC)cc45)cc3)nn2)cc1 | –
20 | 48.9 µM | – | – | – | COc1cc2nccc(Oc3ccc(N/C(=N/c4ccc(F)cc4)C(F)(F)F)cc3)c2cc1OC | –
21 | 16.4 µM | 13.6 µM | > 1 µM | – | COc1cc2nccc(Oc3ccc(NC(=O)N/N=C/c4cn(-c5ccccc5F)nn4)cc3)c2cc1OC | –
22 | 25.7 µM | 19.3 µM | – | – | COc1cc2nccc(Oc3ccc(NC(=O)N/N=C/c4cn(-c5cccc(C)c5)nn4)cc3)c2cc1OC | –
23 | > 50 µM | > 50 µM | – | – | COc1cc2nccc(Oc3ccc(NC(=O)N/N=C/c4cn(-c5ccccc5Br)nn4)cc3)c2cc1OC | –
24 | – | – | – | 0.00928 µM | COc1cc2c(Oc3ccc(NC(=O)c4nn(-c5ccccc5)c(=O)cc4C)cc3F)ccnc2cc1OCCCN1CCOCC1 | –
